Measured values from PMC7311950, “Potent Tetrahydroquinolone Eliminates Apicomplexan Parasites” (Frontiers in Cellular and Infection Microbiology, 2020).
Converted amounts (≈) assume the structure as drawn.

Key:
[1] = system: T. gondii RH-YFP tachyzoites; experiment: In vitro challenge assay, RH strain YFP tachyzoites in HFF; format: cell-based; conditions: Toxoplasma gondii; RH-YFP tachyzoites in HFF; Figure 1A; read-out: Tachy IC50
Description: RH strain YFP Tachyzoites. Protocol was adapted from Fomovska et al. ([2012a],[b]) for HFF. HFF were cultured on a flat, clear-bottomed, black 96-well plate to 90–100% confluence. IMDM (1x, [+] glutamine, [+] 25 mM HEPES, [+] Phenol red, 10% FBS [Gibco, Denmark]) was removed and replaced with IMDM-C(1x, [+] glutamine, [+] 25 mM HEPES, [–] Phenol red, 10% FBS)[Gibco, Denmark]). RH-YFP, lysed from host cells by passing twice through a 27-gauge needle, were counted, then diluted to 32,000/mL in IMDM-C. HFF were infected with 3200 RH-YFP, then returned to 37°C, CO2 (5%) incubator for 1–2 h for infection. Various concentrations of the compounds in 20 μL IMDM-C were added to each well. There were triplicates for each condition. Controls were pyrimethamine/sulfadiazine (standard treatment), 0.1% DMSO only, HFF only, and untreated cultures of HFF infected with 2-fold dilutions of YFP expressing parasites (called “YFP gradient” to establish amount of color from known numbers of YFP expressing parasites). Cells were incubated at 37°C for 72 h. Plates were read using a fluorimeter (Synergy H4 Hybrid Reader, BioTek) to ascertain amount of relative fluorescence units (RFU) YFP, to measure parasite burden after treatment. Data were collected using Gen5 software with IC50 calculated by graphical analysis in Excel.
An initial screening assay of 10 μM, 1 μM, 100 nM, and 10 nM of the compounds was performed. Compounds were not considered effective or pursued for further analysis if there was no inhibition of tachyzoites at 1 μM. If compounds were effective at 1 μM, another experiment was performed to assess effect at 1 μM, 500, 250, 125, 62.5, and 31.25 nM.

[2] = system: T. gondii EGS strain bradyzoites; experiment: In vitro challenge assay for EGS strain bradyzoites; format: cell-based, Toxoplasma gondii; conditions: Toxoplasma gondii; EGS strain in HFF; Figure 1A; read-out: Brady IC50
Description: HFF cells were grown in IMDM on removable, sterile glass cover slips in the bottom of a clear, flat-bottomed 24-well plate. Cultures were infected with 3 × 10^4 EGS strain parasites per well, in 0.5 mL media. The plate was returned to incubator at 37°C overnight. The following day, the media was removed. Colorless IMDM and compounds were added to make various concentrations of the drug. Total volume was 0.5 mL. Two wells had media only, as a control. Plates were returned to the 37°C incubator for 72 h, checked once each 24 h. If tachyzoites were visible in the control before 72 h, cells were fixed and stained. Cells were fixed using 4% paraformaldehyde and stained with Fluorescein-labeled Dolichos Biflorus Agglutinin, DAPI, and antibody to BAG1. Disks were removed, mounted on glass slides, and visualized using microscopy (Nikon Tl7). Slides were scanned using a CRi Panoramic Scan Whole Slide Scanner and viewed using Panoramic Viewer Software. Effects of compounds were quantitated by counting cysts in controls and treated cultures. Dolichos staining delimited structures and single organisms that remained were counted in a representative field of view. This was then multiplied by a factor determined by the total area of the cover slip in order to estimate the number of cysts and organisms in each condition. When the following forms were observed: “true cysts” with a dolichos-staining wall, “pseudocysts” or tight clusters of parasites, and small organisms, if there were fewer than four parasites visible in a cluster, organisms were counted individually (as “small organisms”). The entire scanned coverslip with all fields was also reviewed by 3 observers to confirm consistency.

[3] = Kinetic solubility in PBS pH 7.4 (Chem Partners); conditions: PBS; for solubility kinetic: pH 7.4, aqueous buffer, kinetic from dmso stock
Description: (§1) The effects of changing R1 as 7-Et, 7-Me, 6-CF3, or 6-Me on activity against RH strain tachyzoites, kinetic solubility, and metabolic stability were compared. Kinetic solubility and metabolic stability in human or murine liver microsomes were measured. The hERG (human Ether-à-go-go-Related) liability was also determined. The hERG gene (KCNH2) encodes a protein Kv11.1, the alpha subunit of a potassium ion channel. This channel conducts the rapid component of the delayed rectifier potassium current, IKr, which is critical for repolarization of cardiac action potentials. A reduction in hERG currents from adverse drug effects can lead to long QT interval syndromes. These syndromes are characterized by action potential prolongation, lengthening of the QT interval on surface EKG, and an increased risk for “torsade de pointes” arrhythmias and sudden death. The MDCK-MDR1 Permeability Assay was also performed. MDCK-MDR1 refers to the ability of a compound to permeate across membranes of MDCK-MDR1 (Madin Darby canine kidney [MDCK] cells with the MDR1 gene [ABCB1], the gene encoding for the efflux protein, P-glycoprotein (P-gp)) in vitro. Assessing transport in both directions (apical to basolateral and basolateral to apical) across the cell monolayers enables an efflux ratio to be determined. […] This provides a prediction of blood brain barrier (BBB) penetration potential/permeability and efflux ratio. Effect in CACO-2 (Colon Adenocarcinoma cells) as a permeability assay and on cytochrome P450 (CYP 450) were also determined. CYP enzymes catalyze oxidative biotransformation (phase 1 metabolism) of most drugs. CYP enzymes, bind to membranes in a cell (cyto) and contain a heme pigment (chrome and P) that absorbs light at a wavelength of 450 nm when exposed to carbon monoxide. Metabolism of a drug by CYP enzymes is a major source of variability in drug effect. These were measured by Chem Partners. The relative effect on HFF and parasite enzymes also were compared.

[4] = Metabolic stability in mouse liver microsomes; conditions: mouse, liver microsomes, T1/2 (M), predicted half-life in mouse liver microsomes; Figure 1A; min in Figure 2E for the same values
Description: as §1
(§2) In vitro absorption, distribution, metabolism, excretion, and toxicity (ADMET) analyses of the THQ compounds were outsourced to ChemPartner Shanghai Ltd. ELQ-271 (synthesized in-house) was tested as a comparison.

[5] = Metabolic stability in human liver microsomes; conditions: human, liver microsomes
Description: as §1, §2

Cc1[nH]c2c(c(=O)c1-c1ccc(Oc3cccc(OC(F)(F)F)c3)cc1)CCCC2 [AS006]
IC50 [1]: 60 nM
IC50 [2]: 1000 nM
solubility kinetic [3]: 0.55 µM (≈ 0.228 µg/mL)
half-life [4]: 25.9 min

Cc1[nH]c2c(c(=O)c1-c1ccc(Oc3cccc(C(F)(F)F)c3)cc1)CCCC2 [AS012]
IC50 [1]: 260 nM
solubility kinetic [3]: 2.19 µM (≈ 0.875 µg/mL)
half-life [4]: 30.1 min

Cc1[nH]c2c(c(=O)c1-c1ccc(Oc3ccc(F)c(Cl)c3)cc1)CCCC2 [AS021]
IC50 [1]: 65 nM
IC50 [2]: 1000 nM
solubility kinetic [3]: 2 µM (≈ 0.768 µg/mL)
half-life [4]: 41.1 min

Cc1[nH]c2c(c(=O)c1-c1ccc(Oc3cc(Cl)cc(Cl)c3)cc1)CCCC2 [AS022]
IC50 [1]: 30 nM
IC50 [2]: 1000 nM
solubility kinetic [3]: 6.25 µM (≈ 2.5 µg/mL)
half-life [4]: 28.6 min

Cc1[nH]c2c(c(=O)c1-c1ccc(Oc3ccc4c(c3)OCO4)cc1)CCCC2 [AS032]
IC50 [1]: 200 nM

Cc1[nH]c2c(c(=O)c1-c1ccc(Oc3cc(Cl)nc(Cl)c3)cc1)CCCC2 [AS034]
IC50 [1]: 280 nM
solubility kinetic [3]: 5.05 µM (≈ 2.03 µg/mL)
half-life [4]: 24.9 min

Cc1[nH]c2ccccc2c(=O)c1-c1ccc(Oc2ccc(OC(F)(F)F)cc2)cc1 [ELQ271, reference compound]
IC50 [1]: 30 nM
IC50 [2]: 5000 nM
solubility ([3]; pH 7.4, aqueous solubility (PBS, pH 7.4), amorphous compounds): 0.2 µM (≈ 0.0823 µg/mL)
half-life [4]: 448 min

Cc1c(-c2ccc(Oc3ccc(OC(F)(F)F)cc3)cc2)c(=O)c2c(n1C)CCCC2 [JAG023]
IC50 [1]: 800 nM

Cc1[nH]c2c(c(=O)c1-c1ccc(Oc3ccc(F)cc3)cc1)CCCC2 [JAG058]
IC50 [1]: 40 nM
IC50 [2]: 1000 nM
solubility kinetic [3]: 2.38 µM (≈ 0.832 µg/mL)
half-life [5]: 263 min
half-life [4]: 39.2 min

Cc1[nH]c2c(c(=O)c1-c1ccc(Oc3cccc(Cl)c3)cc1)CCCC2 [JAG062]
IC50 [1]: 16 nM
IC50 [2]: 1000 nM
solubility kinetic [3]: 0.33 µM (≈ 0.121 µg/mL)
half-life [5]: 135 min
half-life [4]: 12.4 min

Cc1[nH]c2c(c(=O)c1-c1ccc(Oc3ccc(C(F)(F)F)cc3)cc1)CCCC2 [JAG063]
IC50 [1]: 200 nM
solubility kinetic [3]: 0.45 µM (≈ 0.18 µg/mL)
half-life [5]: 537 min
half-life [4]: 127 min

Cc1[nH]c2c(c(=O)c1-c1ccc(Oc3cccc(F)c3)cc1)CCCC2 [JAG069]
IC50 [1]: 30 nM
IC50 [2]: 1000 nM
solubility kinetic [3]: 0.5 µM (≈ 0.175 µg/mL)
half-life [5]: 202 min
half-life [4]: 17.4 min

Cc1[nH]c2c(c(=O)c1-c1ccc(Oc3ccc(Cl)c(Cl)c3)cc1)CCCC2 [JAG084]
IC50 [1]: 55 nM
IC50 [2]: 1000 nM
solubility kinetic [3]: 0.68 µM (≈ 0.272 µg/mL)
half-life [4]: 63.1 min

O=C(O)c1[nH]c2c(c(=O)c1-c1ccc(Oc3ccc(OC(F)(F)F)cc3)cc1)CCCC2 [JAG091]
IC50 [1]: > 10000 nM

Cc1[nH]c2c(c(=O)c1-c1ccc(O)cc1)CCCC2 [JAG094]
IC50 [1]: 1000 nM

Cc1[nH]c2c(c(=O)c1-c1ccc(Oc3ccc(OC(F)(F)F)cc3)cc1)CC(C(F)(F)F)CC2 (centres unmarked) [JAG100]
IC50 [1]: > 10000 nM

Cc1[nH]c2c(c(=O)c1-c1ccc(Oc3ccc(OC(F)(F)F)cc3)cc1)CC(C)CC2 (centres unmarked) [JAG106]
IC50 [1]: 2500 nM

Cc1[nH]c2c(c(=O)c1-c1ccc(Oc3ccc(OC(F)(F)F)cc3)cc1)CCC(C)C2 (centres unmarked) [JAG107]
IC50 [1]: 50 nM
solubility kinetic [3]: 0.03 µM (≈ 0.0129 µg/mL)
half-life [4]: 112 min

CCC1CCc2c([nH]c(C)c(-c3ccc(Oc4ccc(OC(F)(F)F)cc4)cc3)c2=O)C1 (centres unmarked) [JAG121]
IC50 [1]: 55 nM
solubility kinetic [3]: 0.16 µM (≈ 0.071 µg/mL)
half-life [4]: 63.3 min

Cc1[nH]c2cnccc2c(=O)c1-c1ccc(Oc2ccc(OC(F)(F)F)cc2)cc1 [JAG129]
IC50 [1]: 85 nM
solubility kinetic [3]: 5.12 µM (≈ 2.11 µg/mL)

Cc1[nH]c2c(c(=O)c1-c1ccc(Oc3ccc(OC(F)(F)F)cc3)cc1)CCC(C(F)(F)F)C2 (centres unmarked) [JAG162]
IC50 [1]: 300 nM
solubility kinetic [3]: 0.02 µM (≈ 0.00967 µg/mL)
half-life [4]: 144 min

CCOC(=O)Oc1c2c(nc(C)c1-c1ccc(Oc3ccc(OC(F)(F)F)cc3)cc1)CCCC2 [JAG171]
IC50 [1]: 100 nM

CCC1CCc2c([nH]c(CO)c(-c3ccc(Oc4ccc(OC(F)(F)F)cc4)cc3)c2=O)C1 (centres unmarked) [JAG174]
IC50 [1]: 380 nM

O=c1c2c([nH]c(CO)c1-c1ccc(Oc3ccc(OC(F)(F)F)cc3)cc1)CC(C(F)(F)F)CC2 (centres unmarked) [JAG187]
IC50 [1]: 2000 nM

CC1CCc2c([nH]c(CO)c(-c3ccc(Oc4ccc(OC(F)(F)F)cc4)cc3)c2=O)C1 (centres unmarked) [JAG193]
IC50 [1]: 50 nM

Cc1[nH]c2c(c(=O)c1-c1ccc(Oc3cc(Cl)cc(Cl)c3)cc1)CCC(C)C2 (centres unmarked) [JAG208]
IC50 [1]: 20 nM
IC50 [2]: 1000 nM

Cc1[nH]c2ccccc2c(=O)c1-c1ccc(Oc2ccccc2)cc1 [MJM129]
IC50 [1]: 50 nM
IC50 [2]: > 10000 nM

Cc1[nH]c2ccnn2c(=O)c1-c1ccc(Oc2ccc(OC(F)(F)F)cc2)cc1 [MJM141]
IC50 [1]: 8200 nM
IC50 [2]: 10000 nM
solubility kinetic [3]: 0.94 µM (≈ 0.377 µg/mL)
half-life [5]: 278 min
